pIC50, pKd: −log10 of the molar value. “And” between values parts separate entries of the source, which are not always exact repeats. Identical values can stand only once.
Tests used:
[1] = molecular target: T1, FLT3(K663Q) (Homo sapiens, UniProt P36888, K663Q); assay: Binding constant (Kd), competition binding with qPCR readout
T1 construct: made in house; host or cells: E. coli BL21-derived host (T7 phage) or HEK-293

[2] = molecular target: T2, BTK (E41K) (Homo sapiens, UniProt Q06187, E41K); assay: Inhibition of BTK, kinase IC50; assay type: biochemical
T2 construct: RBC (only as the name of the general kinase protocol)
T2 sequence (Q06187 whole entry E41K): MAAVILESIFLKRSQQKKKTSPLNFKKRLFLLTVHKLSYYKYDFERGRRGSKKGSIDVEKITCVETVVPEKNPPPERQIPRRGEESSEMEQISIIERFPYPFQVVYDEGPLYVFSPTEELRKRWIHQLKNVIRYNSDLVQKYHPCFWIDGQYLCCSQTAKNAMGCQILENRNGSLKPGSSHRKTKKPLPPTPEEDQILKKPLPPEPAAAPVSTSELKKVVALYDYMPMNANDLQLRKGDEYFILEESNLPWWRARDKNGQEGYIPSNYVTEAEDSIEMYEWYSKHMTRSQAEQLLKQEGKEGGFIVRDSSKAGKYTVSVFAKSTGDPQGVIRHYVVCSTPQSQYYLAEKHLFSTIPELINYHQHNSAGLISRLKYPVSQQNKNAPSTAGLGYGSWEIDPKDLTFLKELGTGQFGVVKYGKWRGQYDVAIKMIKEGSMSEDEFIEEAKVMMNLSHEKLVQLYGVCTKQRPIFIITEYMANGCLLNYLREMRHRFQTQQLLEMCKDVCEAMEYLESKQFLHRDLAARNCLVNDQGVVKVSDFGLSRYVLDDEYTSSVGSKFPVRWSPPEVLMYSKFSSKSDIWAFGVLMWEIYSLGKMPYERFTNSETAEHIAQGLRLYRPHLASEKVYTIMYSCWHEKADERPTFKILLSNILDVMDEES
Experimental: (§1) RBC HotSpot Kinase Assay Protocol:
(§2) Reagents used: Base Reaction buffer; 20 mM Hepes (pH 7.5), 10 mM MgCl2, 1 mM EGTA, 0.02% Brij35, 0.02 mg/ml BSA, 0.1 mM Na3VO4, 2 mM DTT, 1% DMSO. Required cofactors are added individually to each kinase reaction.
(§3) Compound 7 was dissolved in 100% DMSO to a specified concentration. The serial dilution was conducted by epMotion 5070 in DMSO. The substrate was freshly prepared in Reaction Buffer and any required cofactors to the substrate solution were added. The kinase was added to the solution and gently mixed. Compound 7 was added in 100% DMSO into the kinase reaction mixture by Acoustic technology (Echo550; nanoliter range), and incubated for 20 min at room temperature. ^33P-ATP (Specific activity 10 μCi/μl) was added into the reaction mixture to initiate the reaction, which was incubated for 2 hours, whereupon kinase activity was detected by the filter-binding method.

[3] = molecular target: T3, BTK (Homo sapiens, UniProt Q06187); assay: Inhibition of BTK, kinase IC50; assay type: biochemical
T3 construct: RBC (only as the name of the general kinase protocol)
T3 sequence (Q06187 whole entry): as the sequence (Q06187 whole entry E41K) above, with K41E counted along it
Experimental: as §1, §2, §3

[4] = molecular target: T4, BTK (P190K) (Homo sapiens, UniProt Q06187, P190K); assay: Inhibition of BTK, kinase IC50; assay type: biochemical
T4 construct: RBC (only as the name of the general kinase protocol)
T4 sequence (Q06187 whole entry P190K): as the sequence (Q06187 whole entry E41K) above, with K41E, P190K counted along it
Experimental: as §1, §2, §3

[5] = molecular target: BTK C481S (Homo sapiens, UniProt Q06187, C481S); assay: Comparative potency against BTK (Table 8); assay type: biochemical; conditions: x printed without key
Sequence of BTK C481S (Q06187 whole entry C481S): as the sequence (Q06187 whole entry E41K) above, with K41E, C481S counted along it

[6] = molecular target: ITK (Homo sapiens, UniProt Q08881); assay: Key off-targets (Table 8); assay type: biochemical
Sequence of ITK (Q08881 whole entry): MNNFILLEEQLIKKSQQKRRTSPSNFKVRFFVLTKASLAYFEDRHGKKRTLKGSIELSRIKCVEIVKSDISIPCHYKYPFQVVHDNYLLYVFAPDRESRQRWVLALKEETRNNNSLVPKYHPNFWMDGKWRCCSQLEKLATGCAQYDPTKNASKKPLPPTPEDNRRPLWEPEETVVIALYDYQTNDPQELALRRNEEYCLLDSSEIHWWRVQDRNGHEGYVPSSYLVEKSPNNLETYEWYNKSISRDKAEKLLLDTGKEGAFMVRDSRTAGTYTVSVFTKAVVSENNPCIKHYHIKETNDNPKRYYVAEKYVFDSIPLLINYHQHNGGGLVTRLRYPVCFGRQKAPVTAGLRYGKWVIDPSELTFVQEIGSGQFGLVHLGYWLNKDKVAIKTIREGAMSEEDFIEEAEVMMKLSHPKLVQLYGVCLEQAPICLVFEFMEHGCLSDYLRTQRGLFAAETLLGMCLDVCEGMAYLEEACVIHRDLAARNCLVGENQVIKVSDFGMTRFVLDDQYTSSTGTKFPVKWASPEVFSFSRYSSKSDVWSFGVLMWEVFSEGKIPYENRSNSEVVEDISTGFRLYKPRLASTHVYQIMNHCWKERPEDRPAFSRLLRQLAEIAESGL

[7] = tested on: Ba/F3 cells transfected with FLT3 D835Y; assay: Cytotoxicity in isogenic transfected Ba/F3 cells (Table 4); assay type: cell-based, Murin; conditions: Mus musculus, BaF3, read-out: IC50 in Transfected Ba/F3 cells, FLT3 D835Y
[8] = tested on: Ba/F3 cells transfected with FLT3 ITD-D835Y; assay: as above; assay type: cell-based, Murin; conditions: Mus musculus, BaF3, read-out: IC50 in Transfected Ba/F3 cells, FLT3 ITD-D835Y
[9] = tested on: Ba/F3-ITD (FLT3-ITD); assay: Antiproliferative activity (Table 6); assay type: cell-based, Murin; conditions: 72 h
[10] = tested on: Ba/F3-D835G (FLT3-D835G); assay: Antiproliferative activity (Table 6); assay type: cell-based, Murin; conditions: 72 h
[11] = tested on: Ba/F3-D835Y (FLT3-D835Y); assay: Antiproliferative activity (Table 6); assay type: cell-based, Murin; conditions: 72 h
[12] = tested on: ALL patient samples; assay: Ex vivo assay for patient sensitivity (MTS, 3-day culture); assay type: cell-based, human; conditions: N evaluated 18
Experimental: (§4) 85 Patients with a diagnosis of acute myeloid leukemia (AML), 15 patients with myelodysplastic syndrome/myeloproliferative neoplasms (MDS/MPN), 18 patients with acute lymphoblastic leukemia (ALL), and 56 patients with chronic lymphocytic leukemia (CLL) were evaluated for sensitivity to the multi-kinase inhibitor, Compound 7, using an ex vivo assay. Sensitivity to Compound 7 was evaluated across a concentration range from 10 nM to 10 μM. Cell viability was assessed using a colorimetric, tetrazolium-based MTS assay after a 3-day culture period, and IC50 values were calculated as a measure of drug sensitivity.

[13] = tested on: AML patient samples; assay: as above; assay type: cell-based, human; conditions: N evaluated 85, 10 nM to 10 μM
Experimental: as §4

[14] = tested on: CLL patient samples; assay: as above; assay type: cell-based, human; conditions: N evaluated 56
Experimental: as §4

[15] = tested on: MDS/MPN patient samples; assay: as above; assay type: cell-based, human; conditions: N evaluated 15
Experimental: as §4

[16] = tested on: Aurora kinase in FLT3 WT cells (KG-1); assay: Cell signaling Western blot; assay type: cell-based; conditions: KG-1 cells, FIGS. 25A-25B
Experimental: (§5) Immunoblot assays: Cells were treated with Compound 7 at various concentrations and collected for cell lysates. The total and phosphorylated levels of the indicated proteins were determined by Western Blot.

[17] = tested on: PDGFRA and FLT3 (WT) signaling in EOL-1 cells; assay: Cell signaling Western blot; assay type: cell-based
Experimental: as §5

[18] = tested on: Ramos; assay: Apoptosis in B-cell malignancies (annexin V/PI, cleaved PARP); assay type: cell-based; conditions: increasing concentrations
Experimental: Mechanistic studies were undertaken to determine the mechanism of action for Compound 7. The apoptotic state of treated cells was determined by staining with annexin V and propidium iodide (PI), then analysis with the BD Accuri C6 flow cytometer, whereby live cells are annexin V/PI negative, early apoptotic cells are annexin V positive and late apoptotic cells are annexin V and PI positive. In addition production of cleaved PARP, a classic apoptotic marker, was assayed by western blotting with specific antibodies.

[19] = tested on: MV4-11; assay: Cytotoxicity in high serum conditions (MTS); assay type: cell-based, human; conditions: MV4-11, 72 hours, 10% vs 30%, 50%, 80% FBS
Experimental: (§6) Compound 7 was tested in a dose-dependent manner at different serum concentrations. […] In this experiment, MV4-11 (n=6) and EOL-1(n=3˜6) cells were treated with or without Compound 7 for 72 hours in medium containing normal (10%) or high serum (30%, 50%, 80%) FBS with an MTS assay serving as an end point.

[20] = tested on: EOL-1; assay: Cytotoxicity in high serum conditions (MTS); assay type: cell-based; conditions: EOL-1, 72 hours, 10% vs 30%, 50%, 80% FBS
Experimental: as §6

[21] = tested on: Mino, RAMOS, GRANTA-519 and SU-DHL-6 cells; assay: Cell cycle progression in B-cell malignant cell lines (EdU/PI, FACS); assay type: cell-based; conditions: FIGS. 27, 28
Experimental: The data presented in FIGS. 27A-27D and FIGS. 28A-28D were generated using well-known protocols for measuring cell cycle progression (e.g., EdU and/or PI staining followed by FACS analysis using the BD Accuri C6 flow), and is readily apparent to a skilled artisan.
Cell-cycle analysis: Cells were treated with vehicle, DMSO or Compound 7 and were stained with PI and EdU, and then analyzed by flow cytometry to determine the phases of cell cycle.

## Cc1cnc(-c2ccc(-c3ccc(NC(=O)Nc4c(F)cc(F)cc4F)cc3F)c3c2C(=O)NC3)[nH]1 [Compound 7, 1-{3-fluoro-4-[7-(5-methyl-1H-imidazol-2-yl)-1-oxo-2,3-dihydro-1H-isoindol-4-yl]-phenyl}-3-(2,4,6-trifluorophenyl)urea]
[1]
  pKd: 9.26
[2]
  pIC50: 7.84
[3]
  pIC50: 8.07
[4]
  pIC50: 8.18
[5]
  pIC50: 8.60
[6]
  pIC50: 8.37
[7]
  pIC50: 8.06
[8]
  pIC50: 7.71
[9]
  pIC50: 9.52
[10]
  pIC50: 9.92
[11]
  pIC50: 8.08
[12]
  % samples with IC50 < 0.1 μM: 61 (11/18) %
[13]
  % samples with IC50 < 0.1 μM: 60% and 60 (51/85) %
[14]
  % samples with IC50 < 0.1 μM: 41 (23/56) %
[15]
  % samples with IC50 < 0.1 μM: 53 (8/15) %
[16]
  Aurora kinase activity and signaling (Western blot): inhibits Aurora kinase activity and signaling
[17]
  PDGFRA and FLT3 (WT) signaling (Western blot): inhibits PDGFRA and FLT3 (WT) signaling
[18]
  Apoptosis induction versus ibrutinib: induced apoptosis more effectively than ibrutinib at all concentrations tested
[19]
  Activity at high serum concentration: retains high activity at high serum concentration
[20]
  Activity at high serum concentration: retains high activity at high serum concentration
[21]
  Cell cycle progression: interferes with cell cycle progression

Source: patent publication US20180344702A1, “METHODS FOR TREATING PATIENTS WITH HEMATOLOGIC MALIGNANCIES” (Aptose Biosciences, Inc., priority 2017, published 2018)
